Common to all, as to assay type: cell-based
Assay [1] concerns hepatocellular carcinoma cell line Hep3B. As to the kind of experiment: Growth inhibition of Hep3B cells, 48 hr treatment, Hoechst 33342 nucleus count (GE InCell 2200). To be noted: Homo sapiens. The essentials: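 Compound exposure lasted 48 hr at 37° C, 5% CO2. Surviving nuclei were counted after Hoechst 33342 staining, and survival was expressed as the treated/non-treated cell number ratio, including the ratio at 10 μM compound.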

Assay [2] concerns Hep3B hepatocellular carcinoma cell line. Kind of assay: MTS cell viability assay (NCI-60 methodology), GI50/LC50, Hep3B. The note with it: Homo sapiens, 48 h, Hep3B cells, 2 days incubation with compound. The essentials:
(§1)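 Cells were plated 24 h before treatment, and a time-zero plate was read by MTS. Five 2-fold dilutions plus DMSO were then added for 48 h, and viability was measured by MTS. GI50 is from [(Ti−Tz)/(C−Tz)]×100=50 and LC50 from [(Ti−Tz)/Tz]×100=−50.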
For orientation: Tetrazolium assays rely on reduction of a dye to a coloured formazan, in cell work by metabolically active cells.

The subject of assay [3] is SW480 colon adenocarcinoma cell line. As to the kind of experiment: MTS cell viability assay (NCI-60 methodology), GI50/LC50, SW480. The note with it: Homo sapiens, 48 h, SW480 cells, 2 days incubation with compound. The method in brief: as §1
The subject of assay [4] is NCI-H460 human lung cancer cell line. Kind of assay: MTS cell viability assay (NCI-60 methodology), GI50/LC50, NCI-H460. The note with it: 48 h, NCI-H460 cells, 2 days incubation with compound. The method in brief:
as §1

Setting [5] is: Table 5, ratio of number of tumor cells treated with 10 μM compound to non-treated cells.
The mark [6] stands for this setting: Table 6, ratio of number of tumor cells treated with 10 μM compound to non-treated cells.

The term viability denotes a per cent measure of how many cells are alive, often set against a control. What is called GI50 is the concentration giving 50% growth inhibition. The LC50 is the concentration lethal to half of the exposed cells or organisms. For `O=C(Nc1nc(-c2ccc(Br)cc2)c(Oc2ccccc2C(F)(F)F)s1)c1ccc([N+](=O)[O-])s1` [Compound 5-19, N-(4-(4-bromophenyl)-5-(2-(trifluoromethyl)phenoxy)thiazol-2-yl)-5-nitrothiophene-2-carboxamide], the viability at 10 µM in assay [1] (setting [5]) was determined as 62%. In assay [2], the GI50 is 1790 nM and the LC50 stood at 3910 nM. In addition, in assay [3], the GI50 was determined as 1510 nM and the LC50 (NCI-60 lethal concentration, 50% net cell loss vs time zero) is 3940 nM. In assay [4], the GI50 worked out at 2880 nM.
Regarding `CCCCc1ccc(-c2nc(NC(=O)c3ccc([N+](=O)[O-])s3)sc2Oc2ccccc2F)cc1` [Compound 5-80, N-(4-(4-butylphenyl)-5-(2-fluorophenoxy)thiazol-2-yl)-5-nitrothiophene-2-carboxamide], in assay [1] (setting [5]), the viability at 10 µM was determined as 26%. In assay [2], the 50% growth inhibitory concentration (GI50) stood at 680 nM and the LC50 is 1280 nM. In assay [3], the concentration for 50% growth inhibition (GI50) stood at 1460 nM and the LC50 (NCI-60 lethal concentration, 50% net cell loss vs time zero) came out at 4170 nM. Moreover, in assay [4], the GI50 is 840 nM and the LC50 (concentration giving 50% net cell loss versus time zero, NCI-60 definition) was 1750 nM.
With `CCCCOc1ccc(-c2nc(NC(=O)c3ccc([N+](=O)[O-])s3)sc2-c2ccc(F)cc2)cc1` [Compound 6-18, N-(4-(4-butoxyphenyl)-5-(4-fluorophenyl)thiazol-2-yl)-5-nitrothiophene-2-carboxamide], in assay [1] (setting [6]), the viability at 10 µM is 26%. Moreover, the GI50 is 1380 nM in assay [2], 6490 nM in assay [3] and 2010 nM in assay [4]. In assay [2], the LC50 is 2170 nM. Also, in assay [4], the LC50 (concentration giving 50% net cell loss versus time zero, NCI-60 definition) came to 8260 nM.
Consider `CC(C)(C)c1ccc(-c2nc(NC(=O)c3ccc([N+](=O)[O-])s3)sc2-c2ccc(Br)cc2)cc1` [Compound 6-53, N-(5-(4-bromophenyl)-4-(4-(tert-butyl)phenyl)thiazol-2-yl)-5-nitrothiophene-2-carboxamide], for which the viability at 10 µM in assay [1] (setting [6]) is 24%. In assay [2], the 50% growth inhibitory concentration (GI50) was 540 nM and the LC50 came out at 620 nM. In assay [3], the GI50 turned out to be 620 nM and the LC50 (NCI-60 lethal concentration, 50% net cell loss vs time zero) was 990 nM. Further, in assay [4], the GI50 amounted to 710 nM and the LC50 (concentration giving 50% net cell loss versus time zero, NCI-60 definition) was found to be 1370 nM.
Consider `O=C(Nc1nc(-c2ccc(OC(F)(F)F)cc2)c(Oc2ccccc2F)s1)c1ccc([N+](=O)[O-])s1` [Compound 5-85, N-(5-(2-fluorophenoxy)-4-(4-(trifluoromethoxy)phenyl)thiazol-2-yl)-5-nitrothiophene-2-carboxamide], for which the viability at 10 µM in assay [1] (setting [5]) came to 34%. For the same molecule, in assay [2], the GI50 was found to be 870 nM and the LC50 is 2540 nM. In assay [3], the GI50 came out at 1660 nM and the LC50 (NCI-60 lethal concentration, 50% net cell loss vs time zero) came to 5730 nM. In assay [4], the GI50 amounted to 750 nM and the LC50 (concentration giving 50% net cell loss versus time zero, NCI-60 definition) is 1580 nM.
For the molecule `CC(C)(C)c1ccc(-c2nc(NC(=O)c3ccc([N+](=O)[O-])s3)sc2-c2cc(F)cc(F)c2)cc1` [Compound 6-38, N-(4-(4-(tert-butyl)phenyl)-5-(3,5-difluorophenyl)thiazol-2-yl)-5-nitrothiophene-2-carboxamide], the viability at 10 µM in assay [1] (setting [6]) is 30%. Moreover, in assay [2], the GI50 is 630 nM and the LC50 is 1610 nM. In assay [3], the GI50 is 740 nM and the LC50 (NCI-60 lethal concentration, 50% net cell loss vs time zero) is 4060 nM. Moreover, in assay [4], the GI50 amounted to 700 nM and the LC50 (concentration giving 50% net cell loss versus time zero, NCI-60 definition) turned out to be 1650 nM.
Consider `O=C(Nc1nc(-c2ccc(Br)cc2)c(Oc2ccc(C(F)(F)F)cc2)s1)c1ccc([N+](=O)[O-])s1` [Compound 5-7, N-(4-(4-bromophenyl)-5-(4-(trifluoromethyl)phenoxy)thiazol-2-yl)-5-nitrothiophene-2-carboxamide], for which, in assay [1] (setting [5]), the viability at 10 µM worked out at 31%. Moreover, in assay [2], the GI50 worked out at 630 nM and the LC50 came out at 1230 nM. Moreover, in assay [3], the GI50 amounted to 320 nM and the LC50 (NCI-60 lethal concentration, 50% net cell loss vs time zero) turned out to be 2800 nM. Further, in assay [4], the GI50 was determined as 850 nM and the LC50 (concentration giving 50% net cell loss versus time zero, NCI-60 definition) worked out at 1850 nM.
For the molecule `CCCCCCOc1ccc(-c2nc(NC(=O)c3ccc([N+](=O)[O-])s3)sc2Oc2ccccc2)cc1` [Compound 5-67, N-(4-(4-(hexyloxy)phenyl)-5-phenoxythiazol-2-yl)-5-nitrothiophene-2-carboxamide], the viability at 10 µM in assay [1] (setting [5]) is 46%. In assay [2], the GI50 is 620 nM and the LC50 stood at 690 nM. In addition, in assay [3], the GI50 turned out to be 1030 nM and the LC50 (NCI-60 lethal concentration, 50% net cell loss vs time zero) is 1910 nM. Also, in assay [4], the GI50 amounted to 790 nM and the LC50 (concentration giving 50% net cell loss versus time zero, NCI-60 definition) turned out to be 1350 nM.
Consider `CCC(C)(C)c1ccc(Oc2sc(NC(=O)c3ccc([N+](=O)[O-])s3)nc2-c2ccc(C(F)(F)F)cc2)cc1` [Compound 5-71, 5-nitro-N-(5-(4-(tert-pentyl)phenoxy)-4-(4-(trifluoromethyl)phenyl)thiazol-2-yl)thiophene-2-carboxamide], for which the viability at 10 µM in assay [1] (setting [5]) was found to be 49%. For the same molecule, in assay [2], the GI50 was 630 nM and the LC50 is 660 nM. Moreover, in assay [3], the GI50 was 810 nM and the LC50 (NCI-60 lethal concentration, 50% net cell loss vs time zero) amounted to 1720 nM. Also, in assay [4], the GI50 was 1530 nM and the LC50 (concentration giving 50% net cell loss versus time zero, NCI-60 definition) is 2400 nM.
For the molecule `O=C(Nc1nc(-c2ccc(F)cc2)c(Oc2ccccc2OC(F)(F)F)s1)c1ccc([N+](=O)[O-])s1` [Compound 5-32, N-(4-(4-fluorophenyl)-5-(2-(trifluoromethoxy)phenoxy)thiazol-2-yl)-5-nitrothiophene-2-carboxamide], in assay [1] (setting [5]), the viability at 10 µM stood at 48%. Besides, in assay [2], the GI50 is 460 nM and the LC50 was found to be 2170 nM. In assay [3], the GI50 is 400 nM and the LC50 (NCI-60 lethal concentration, 50% net cell loss vs time zero) stood at 2260 nM. In assay [4], the GI50 is 690 nM and the LC50 (concentration giving 50% net cell loss versus time zero, NCI-60 definition) came to 1730 nM.
For the molecule `CCC(C)(C)c1ccc(-c2nc(NC(=O)c3ccc([N+](=O)[O-])s3)sc2-c2ccc(F)cc2)cc1` [Compound 6-40, N-(5-(4-fluorophenyl)-4-(4-(tert-pentyl)phenyl)thiazol-2-yl)-5-nitrothiophene-2-carboxamide], the viability at 10 µM in assay [1] (setting [6]) was 25%. Further, in assay [2], the GI50 was 540 nM and the LC50 came out at 3030 nM. Moreover, in assay [3], the GI50 came out at 920 nM and the LC50 (NCI-60 lethal concentration, 50% net cell loss vs time zero) amounted to 1350 nM. Besides, in assay [4], the GI50 amounted to 1880 nM and the LC50 (concentration giving 50% net cell loss versus time zero, NCI-60 definition) turned out to be 3610 nM.
On to `CCCOc1ccc(-c2nc(NC(=O)c3ccc([N+](=O)[O-])s3)sc2Oc2ccc(C(F)(F)F)cc2Cl)cc1` [Compound 5-38, N-(5-(2-chloro-4-(trifluoromethyl)phenoxy)-4-(4-propoxyphenyl)thiazol-2-yl)-5-nitrothiophene-2-carboxamide], for which the viability at 10 µM in assay [1] (setting [5]) is 41%. For the same molecule, in assay [2], the GI50 worked out at 370 nM and the LC50 was 1710 nM. In assay [3], the GI50 came to 770 nM and the LC50 (NCI-60 lethal concentration, 50% net cell loss vs time zero) was determined as 3220 nM. In addition, in assay [4], the GI50 was 570 nM and the LC50 (concentration giving 50% net cell loss versus time zero, NCI-60 definition) was determined as 1430 nM.

Source of the values: patent US11174253B2, “Compound and pharmaceutical composition containing the same” (ALPHALA CO., LTD., priority 2017, dated 2021).
